Results taken from patent publication US20140206678A1, “INHIBITORS OF MTOR KINASE AS ANTI -VIRAL AGENT” (KADMON CORPORATION, LLC, priority 2011, published 2014).
pIC50: −log10 of the molar value.

Columns and labels:
UL99 mRNA = assay: UL99 late transcript level by qPCR in HCMV-infected fibroblasts; format: cell-based, human cytomegalovirus; conditions: rapamycin 20 nM, Torin1 250 nM; 3 PFU/cell
cells = conditions: concentrations of up to 500 nM; previous reports; cited from earlier work
HCMV = HCMV multistep growth in serum-starved human fibroblasts, cell-free virus by TCID50; format: cell-based, human cytomegalovirus
eIF4F complex and 4EBP1 = assay: m7GTP-Sepharose cap-analog binding (eIF4F complex) in HCMV-infected fibroblasts; format: cell-based, human; conditions: rapamycin 20 nM, Torin1 250 nM
Protocol: FIG. 4. Rapamycin-resistant mTOR activity is required for 4EBP1 phosphorylation and eIF4F complex integrity during HCMV infection. Serum-starved confluent human fibroblasts were infected with HCMV at a multiplicity of 3 PFU/cell. […] (A) At 48 hpi the phosphorylation status of mTORC1 targets was assessed by Western blot assay by using antibodies to phosphorylated targets (4EBP1-PT^37/46 and rpS6-PS^235/6) and total proteins. Tubulin was assayed as a loading control. (B) Same as above (A) except that cells were harvested at the indicated times. (C and D) After mock infection (M) or infection with HCMV (WT) at a multiplicity of 3 PFU/cell, cultures were harvested at the indicated times. Equivalent amounts of protein from each sample were incubated with m^7GTP-Sepharose, and the isolated protein complexes were analyzed by Western blotting using the indicated antibodies to the eIF4F complex and 4EBP1. In all cases the results are representative of at least two independent experiments. lys, lysate.
The phosphorylation status of 4EBP1 regulates cap-dependent protein translation. Hypophosphorylated 4EBP1 binds to eIF4E and inhibits the formation of the eIF4F complex, while the phosphorylation of 4EBP1 inhibits its interaction with eIF4E. […]

[1] = tested on: HCMV proteins IE1, pUL44, pUL99; assay: Western blot of HCMV proteins in infected fibroblasts; format: cell-based, human cytomegalovirus; conditions: 6 to 96 hpi; rapamycin 20 nM, Torin1 250 nM; 3 PFU/cell
Protocol: FIG. 2. […] Serum-starved confluent fibroblasts were infected with HCMV at a multiplicity of 3 PFU/cell. […] Control cultures received the vehicle in which Torin1 was dissolved (NT). At 2 hpi cells were harvested, and cell-associated viral DNA was quantified by real-time PCR analysis. Error bars represent the standard errors of the means from two independent experiments performed in duplicate. […] The level of IE1 was determined at 6 hpi by a Western blot assay using an IE1-specific monoclonal antibody. The image is representative of two independent experiments. […] The expression of a GFP marker gene present in the viral genome was monitored at 24 h after infection in the presence or absence of drug.
FIG. 3. […] Cells were harvested at the indicated times, and the accumulation of the indicated proteins was analyzed by Western blotting. […] At the indicated times DNA was isolated, and viral DNA was quantified by qPCR. Equivalent amounts of DNA were analyzed for each sample, and the results are normalized to the level of actin DNA per sample. […] At the indicated times the amount of UL99 RNA was determined by qPCR, and the results are normalized to the amount of actin RNA in each sample. […]
Antibodies to pUL99 have been described previously (Silva, et al. J. Virol. (2003) 77:10594-10605). In addition, accumulation of HCMV DNA was monitored following infection using the methods described above.

γHV68 = γHV68 replication in MEFs, TCID50; format: cell-based, murine gammaherpesvirus 68; conditions: 6 days post infection, rapamycin 20 nM, Torin1 250 nM

CCC(=O)N1CCN(c2ccc(-n3c(=O)ccc4cnc5ccc(-c6cnc7ccccc7c6)cc5c43)cc2C(F)(F)F)CC1 [Torin1]
levels of UL99 mRNA (UL99 mRNA): decreased | cell killing (cells): does not kill cells | pIC50 (HCMV; Human betaherpesvirus 5, Fibroblast, 192 h, read-out: IC50 for blocking production of HCMV progeny): ~7.22 | HCMV replication after removal of drug (HCMV; cells had received 100 nM Torin1, 16 days post infection): completely recovered | HCMV replication after removal of drug (HCMV; cells had received 250 nM drug, 16 days post infection): substantially recovered | HCMV replication after removal of drug (HCMV; cultures initially received 1 mM drug, 16 days post infection): partially recovered | reduction of HCMV yield (HCMV; day 10, rapamycin 20 nM, Torin1 250 nM, 0.05 PFU/cell): about 160 fold | increase in virus yield after reversal of an 8-day Torin1 treatment (HCMV; drug release, 16 days post infection): > 100 fold | association of 4EBP1 with m7GTP-Sepharose cap analog (eIF4F complex and 4EBP1): substantially increased association | association of eIF4G and eIF4A with the cap analog (eIF4F complex and 4EBP1): reduced association | accumulation of immediate-early protein IE1 [1]: to a limited extent | accumulation of late protein pUL99 [1]: dramatically reduced | γHV68 replication (γHV68): inhibited
